PubChem BioAssay (NCI)
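Tested at 5 concentrations; 48 h exposure; 96-well plates; endpoints linearly interpolated, else capped at highest concentration. The concentration for 50% growth inhibition is given as GI50. TGI marks complete inhibition of growth.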

Key:
Experiment in all cases: NCI-60 cell line screen, 48 h
[1] = tested on: MCF7 breast
[2] = tested on: MDA-MB-435
[3] = tested on: HS 578T breast
[4] = tested on: MDA-MB-231 breast
[5] = tested on: PC-3 prostate
[6] = tested on: KM20L2 colon
[7] = tested on: DLD-1 colon
[8] = tested on: DMS 114 small cell lung
[9] = tested on: SNB-78 CNS

SMILES	GI50 [1] [µM]	TGI [1] [µM]	GI50 [2] [µM]	TGI [2] [µM]	GI50 [3] [µM]	TGI [3] [µM]	GI50 [4] [µM]	TGI [4] [µM]	GI50 [5] [µM]	TGI [5] [µM]	TGI [6] [µM]	TGI [7] [µM]	TGI [8] [µM]	TGI [9] [µM]	GI50 [9] [µM]	GI50 [6] [µM]	GI50 [7] [µM]
CCCc1nc2c(C)cc(-c3nc4ccccc4n3C)cc2n1Cc1ccc(-c2ccccc2C(=O)O)cc1	31.9	> 100	33.9	> 100	38.1	> 100	30.3	> 100	29.4	> 100	–	–	–	–	–	–	–
COc1ccc([N+](=O)[O-])c(S(=O)(=O)c2ccc(Cl)cc2)n1	2.24	7.29	1.75	3.66	13	51.1	2.83	7.43	17.3	33.8	–	–	–	–	–	–	–
COc1cc(-n2cc(-c3ccc(Cl)cc3)[nH]c2=O)cc(OC)c1OC	35	> 100	88.4	> 100	76.6	> 100	23.1	55.4	16.4	51.2	–	–	–	–	–	–	–
COC(=O)CCC/C=C\C[C@H]1C=CC(=O)/C1=C/C[C@@H](O)C/C=C\CC(F)(F)F	0.393	10.3	2.05	10.6	8.98	70.3	2.72	7.41	2.79	7.31	–	–	–	–	–	–	–
CSc1nc2sc3cc(Cl)ccc3n2c(=N)c1C#N	3.31	> 100	> 100	> 100	2.89	> 24.9	> 85.7	> 100	42.2	> 100	–	–	–	–	–	–	–
COc1ccc(C2=NN(C(C)=O)C(c3cn(-c4ccccc4)nc3-c3ccc(Cl)cc3)C2)cc1 (stereo unspecified)	> 100	> 100	> 100	> 100	4.88	> 100	> 100	> 100	> 100	> 100	–	–	–	–	–	–	–
CC(C)(C)c1ccc(C(O)c2ccc(C(C)(C)C)cc2)cc1	–	–	–	–	–	–	–	–	–	–	32.5	28.3	25.7	–	–	–	–
C[C@@H]1C=C2C(=O)O[C@@H]3CC[C@H](C1)[C@]23O	2.5	13.3	3.39	13.7	12.7	> 100	3.96	17.4	3.68	14.9	–	–	–	–	–	–	–
NCCNC(=S)S	–	> 100	–	> 100	–	43	–	> 100	–	> 100	–	–	–	–	–	–	–
COC1=CC(c2ccc[nH]2)=N/C1=C\c1ccc[nH]1	0.346	11.9	0.0737	4.24	0.292	3.56	0.11	14.6	0.158	13.6	–	–	–	–	–	–	–
Cc1[nH]c(=O)[nH]c(=O)c1CO	> 100	> 100	> 100	> 100	> 100	> 100	> 100	> 100	> 100	> 100	–	–	–	–	–	–	–
CCOC(=O)c1c(C(F)(F)F)n([O-])c2ccc(OC)cc2[n+]1=O	4.38	65	4.47	76	4.07	46.2	5.38	51.6	2.99	> 100	–	–	–	–	–	–	–
CCC(=C/[C@H](C)C/C=C/C(C)=C/[C@@H](C)C(=O)[C@@H](C)[C@H](O)[C@@H](C)CC)/C=C/[C@H]1OC(=O)C=C[C@H]1C	< 0.01	1.18	< 0.01	0.0256	< 0.01	0.438	< 0.01	1.5	< 0.01	1.57	–	–	–	–	–	–	–
O=C(/C=C\c1ccc(Cl)cc1Cl)c1cccs1	–	41.1	–	36.2	–	75.3	–	40.5	–	35.2	–	–	–	–	–	–	–
COc1ccc(-c2ccc(C3CC(c4ccc(Cl)cc4)=NN3)o2)c([N+](=O)[O-])c1 (stereo unspecified)	> 100	> 100	> 100	> 100	> 100	> 100	> 100	> 100	> 100	> 100	–	–	–	–	–	–	–
Cn1cc(C2=C(c3cn(CCN)c4ccccc34)C(=O)NC2=O)c2ccccc21	3.72	> 23.4	3.81	19.4	4.32	20.2	6	19.2	5.14	> 19.7	–	–	–	–	–	–	–
Nc1ccc(/C=N/Nc2ccnc3c(N)cccc23)c2cccnc12	1.48	3.12	1.64	3.16	2.04	4.62	1.6	3.15	–	–	–	–	–	–	–	–	–
C[C@H]1[C@H](C)CC[C@]2(C(=O)O)CC[C@]3(C)C(=CC[C@@H]4[C@@]5(C)C/C(=C/c6ccco6)C(=O)C(C)(C)[C@@H]5CC[C@]43C)[C@H]12	3.17	13	6.58	20.4	11.6	> 100	6.72	24.1	2.89	13.3	–	–	–	–	–	–	–
CCCCCCCC[N+](C)(CCCCCCCC)CCCCCCCC	0.322	1.14	0.273	1.01	0.471	2.99	0.338	1.26	0.24	1.02	–	–	–	–	–	–	–
NS(=O)(=O)c1ccc(N2N=C3c4ccccc4CC3C2c2ccc(Cl)cc2)cc1 (stereo unspecified)	25	59.5	16.1	37.2	4.61	19.2	2.89	8.24	7.17	22.6	–	–	–	–	–	–	–
NC(=S)N/N=C1/C(=O)N(c2ccc(Cl)cc2Cl)C(=O)C(=O)C1c1nc2ccccc2s1 (stereo unspecified)	–	–	–	–	–	–	–	–	–	–	> 100	–	> 100	> 100	–	–	–
Cc1nc(NC(=O)CCCN2C(=O)c3cccc4cccc(c34)C2=O)sc1C(=O)Nc1cc(C(=O)NCCCN(C)C)n(C)c1	> 100	> 100	> 100	> 100	> 100	> 100	> 100	> 100	> 100	> 100	–	–	–	–	–	–	–
COc1ccccc1CNCCCN1C(=O)c2ccc3c4c(ccc(c24)C1=O)C(=O)N(CCCNCCCN)C3=O	0.123	2.43	0.57	2.72	1.2	5.82	1.41	9.72	0.653	4.61	–	–	–	–	–	–	–

SMILES	GI50 [1] [µM]	TGI [1] [µM]	GI50 [2] [µM]	TGI [2] [µM]	GI50 [3] [µM]	TGI [3] [µM]	GI50 [4] [µM]	TGI [4] [µM]	GI50 [5] [µM]	TGI [5] [µM]	TGI [6] [µM]	TGI [7] [µM]	TGI [8] [µM]	TGI [9] [µM]	GI50 [9] [µM]	GI50 [6] [µM]	GI50 [7] [µM]
COc1ccc(NC(=O)c2sc3nc(C)c(C(O)c4ccccc4)cc3c2N)cc1 (stereo unspecified)	0.502	54.2	0.291	0.971	1.73	6.86	2.96	> 100	3.31	> 100	–	–	–	–	–	–	–
COC(=O)C1=C(C(=O)OC)C23C=C(C)C1C2=C(C)C1(CC1)[C@@](C)(O)C3=O (stereo partly specified)	0.346	> 100	–	–	1.37	7.61	0.309	1.56	0.386	32.9	–	–	–	–	–	–	–
Cc1ccc(S(=O)(=O)N2CCc3ccc(O)c4c3C2Cc2cc(Cl)ccc2-4)cc1 (stereo unspecified)	1.08	6.28	0.635	1.45	0.889	6.68	1.21	4.74	0.917	6.8	–	–	–	–	–	–	–
COc1ccc(/C(C)=N/OC(=O)c2c(-c3ccccc3Cl)noc2C)cc1CN1CCOCC1	–	46.3	–	57.3	–	> 100	–	66.5	–	98.1	–	–	–	–	–	–	–
CCOC(=O)c1sc(=S)c2c(C(=O)OCC)c(C(=O)OCC)sc2c1C(=O)OCC	15.2	29.9	27.4	67.2	17.7	47.3	14.6	32.7	8.17	21.2	–	–	–	–	–	–	–
CC(=O)N=c1ccc2nc3c(cc(N)c4ccccc43)oc-2c1	0.753	2.4	0.207	0.421	–	> 23.8	1.25	3.92	1.05	5.83	–	–	–	–	–	–	–
C[C@@]12CCC(=O)C=C1CC[C@H]1C2=CC[C@]2(C)C1CC[C@@]2(C)O (stereo partly specified)	–	> 100	–	> 100	–	> 100	–	> 100	–	> 100	–	–	–	–	–	–	–
COc1ccc(-c2nc(-c3nc4ccc(OC)cc4[nH]3)cc3c2[nH]c2ccccc23)cc1	2.55	> 100	4.31	> 100	2.85	> 100	8.51	> 100	1.52	> 100	–	–	–	–	–	–	–
N.N.NCCCCN.O=C([O-])C1(C(=O)[O-])CCC1.O=C([O-])C1(C(=O)[O-])CCC1.[Pt+4].[Pt+4]	–	–	–	–	–	–	–	–	–	–	> 100	> 100	–	> 100	> 100	> 100	> 100
CCOC(=O)c1sc(Nc2ccc(Cl)cc2)nc1C	1.64	6.14	2.12	4.75	2.22	6.2	1.08	2.61	1.37	3.42	–	–	–	–	–	–	–
COc1cc2nc(Nc3cccc(F)c3)nc(Nc3cc(C)[nH]n3)c2cc1OC	1.73	3.83	1.63	3.16	1.86	4.01	1.74	3.42	1.68	3.39	–	–	–	–	–	–	–
O=C1CCC2(CC1)SCCCS2	–	–	–	–	–	–	–	–	–	–	> 100	> 100	> 100	–	–	–	–
COc1cc(C(=O)c2cc3c(cc2C)OCO3)cc(OC)c1OC	0.0366	> 100	–	–	0.174	> 100	0.147	> 100	0.141	> 100	–	–	–	–	–	–	–
COc1ccc2c(c1)CC[C@@H]1[C@@H]2CC[C@]2(C)C(c3ccco3)=C(C=O)C[C@@H]12	8.2	> 100	2.21	5.88	23.2	60	10.8	30.7	5.66	37.3	–	–	–	–	–	–	–
COc1ccc(/C=C/c2n[nH]c3ccc(N4CCOC4=O)cc23)cc1	1.93	40.3	3.2	38.6	3.23	9.59	2.98	9.8	3.22	11.2	–	–	–	–	–	–	–
Nc1nc2nc[nH]c2c(=O)[nH]1	–	–	–	–	–	–	–	–	–	–	> 100	> 100	–	> 100	–	–	–
CCCN(CCC)c1ccc(/C=N/NC(=O)c2cccnc2)c(Cl)c1	2.59	21.1	2.68	12.4	14.3	47.3	12.4	28.5	14.1	> 81.3	–	–	–	–	–	–	–
NCc1nnn(Cc2ccccc2)c1N	–	> 100	–	> 100	–	> 100	–	> 100	–	> 100	–	–	–	–	–	–	–
CCn1cnc2c(Nc3cccc(Cl)c3)nc(N[C@@H]3CCCC[C@@H]3N)nc21	0.824	3.23	1.42	2.82	2.36	7.99	1.83	5.37	1.3	3.36	–	–	–	–	–	–	–
COc1cc(-c2cc(-c3nc4ccc(Cl)cc4[nH]3)[nH]n2)cc(OC)c1OC	2.17	7.75	3.3	12.7	3.58	45.5	3.94	24.3	2.47	8.29	–	–	–	–	–	–	–
N#Cc1ccnc(N2C(=O)CC[C@H]2C(=O)N(c2cncc(F)c2)[C@H](C(=O)NC2CC(F)(F)C2)c2ccccc2Cl)c1	27	> 100	64	> 100	99.6	> 100	50.7	> 100	> 100	> 100	–	–	–	–	–	–	–
Nc1ncnc2c1ncn2C1OC(CO)=CC1O (stereo unspecified)	–	> 37.5	–	> 37.5	–	> 37.5	–	> 37.5	–	> 37.5	–	–	–	–	–	–	–
C=C(C)[C@@H]1CC[C@]2(C)[C@H](CC[C@@H]3[C@H]4[C@H]5OC[C@@]4(CCC5(C)C)CC[C@]32C)[C@@]1(C)CCCN	1.57	3.04	1.76	3.24	2.1	4.61	1.84	3.54	1.74	3.29	–	–	–	–	–	–	–
